Among the data in patent EP0620225B1, “Cephalosporin derivatives” (Basilea Pharmaceutica AG, priority 1993, dated 1994) are MIC and ED50 values, retold here.

The structures appear in SMILES notation. Where a name gives a salt, the structure may show the parent alone. Some results are limits rather than exact numbers.

A word on the ED50: it is the dose at which the effect has come halfway, by size or by number of responders. Low values mean greater potency, high ones weaker potency.

One assay concerns E. coli ATCC 25922. As to the kind of experiment: MIC, agar dilution method in Mueller Hinton agar. As to conditions: Escherichia coli, ATCC25922, read-out: Minimum Inhibiting Concentration Values. The format is cell-based. The method, then: (§1) In vitro activity was determined by minimum inhibitory concentration in a microorganism spectum by the agar dilution method in Mueller Hinton agar.
In general terms: In agar dilution the substance is mixed into plates at graded concentrations.

For a further assay, the system named is E. coli TEM-1. Kind of assay: MIC, agar dilution method in Mueller Hinton agar. The settings on record: Escherichia coli, TEM1, read-out: Minimum Inhibiting Concentration Values. The format is cell-based. As to the method:
as §1

Another assay deals with Prot. vulgaris ATCC 6380. Kind of assay: MIC, agar dilution method in Mueller Hinton agar. The format is cell-based. As to conditions: Proteus vulgaris, ATCC6380, read-out: Minimum Inhibiting Concentration Values. As to the method:
as §1

For a further assay, the system named is Ps. aeruginosa 5712. As to the kind of experiment: MIC, agar dilution method in Mueller Hinton agar. The format is cell-based. The settings on record: Pseudomonas aeruginosa, read-out: Minimum Inhibiting Concentration Values. The method, then: as §1
The subject of assay [1] is Ps. aeruginosa ATCC 27853. As to the kind of experiment: MIC, agar dilution method in Mueller Hinton agar. The format is cell-based. As to conditions: Pseudomonas aeruginosa, ATCC27853, read-out: Minimum Inhibiting Concentration Values. The method, then:
as §1

In the next assay the test system is Staph. aureus ATCC 29213. Kind of assay: MIC, agar dilution method in Mueller Hinton agar. As to conditions: Staphylococcus aureus, ATCC29213, read-out: Minimum Inhibiting Concentration Values. The format is cell-based. The method, then: as §1
In another assay the test system is Staph. aureus Smith. Kind of assay: MIC, agar dilution method in Mueller Hinton agar. The format is cell-based. The settings on record: Staphylococcus aureus, read-out: Minimum Inhibiting Concentration Values. As to the method:
as §1

The subject of another assay is Str. pneumoniae 6301. As to the kind of experiment: MIC, agar dilution method in Mueller Hinton agar. As to conditions: Streptococcus pneumoniae; Str. pneumoniae 6301; read-out: Minimum Inhibiting Concentration Values. The format is cell-based. As to the method: as §1
In the next assay the test system is Str. pyogenes 4. As to the kind of experiment: MIC, agar dilution method in Mueller Hinton agar. The format is cell-based. The settings on record: Streptococcus pyogenes, read-out: Minimum Inhibiting Concentration Values. The method, then:
as §1

The subject of a further assay is Escherichia coli 25922. As to the kind of experiment: Efficacy against systemic infections (septicemia) in mice. The format is in vivo. The settings on record: 96 h, Escherichia coli 25922, po (orally) 1 and 3 h after challenge, survival day 4. In short, it runs like this: (§2)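 Swiss albino mice (16–20 g) infected i.p. with 4–10× the 48-h LD50 of each strain; compound given p.o. or s.c. at 1 and 3 h post-challenge, plus 5 h for P. aeruginosa BA. Five mice per group; ED50 (mg/kg) by probit analysis of day-4 survival.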

Assay [2] relates to Pseudomonas aeruginosa BA. Described as above. The format is in vivo. As to conditions: 96 h, sc (subcutaneous) 1, 3 and 5 h after challenge, survival day 4. In short, it runs like this: as §2
The subject of assay [3] is Streptococcus pyogenes 15. The assay is described as above. The settings on record: 96 h, Streptococcus pyogenes 15, po (orally) 1 and 3 h after challenge, survival day 4. The format is in vivo. In short, it runs like this:
as §2

With `Nc1nc(/C(=N/OCC(=O)O)C(=O)N[C@@H]2C(=O)N3C(C(=O)O)=C(/C=C4\CCN(C5CC5)C4=O)CS[C@H]23)cs1` [C, [6R-[3(E),6α,7β(Z)]]-7-[[(2-Amino-4-thiazolyl)[(carboxy-methoxy)imino]-acetyl]amino]-3-[[1-cyclopropyl-2-oxo-3-pyrrolidinylidene]-methyl]-8-oxo-5-thia-1-azabicyclo[4.2.0]oct-2-ene-2-carboxylic acid disodium salt], the MIC in the assay with E. coli ATCC 25922 is 0.0313 µg/mL; in the assay on E. coli TEM-1, 0.0313 µg/mL; with Prot. vulgaris ATCC 6380, no more than 0.0156 µg/mL; in the assay with Ps. aeruginosa 5712 it was 4 µg/mL; in assay [1], 4 µg/mL; with Staph. aureus ATCC 29213 it was 16 µg/mL. Further, the figures for the MIC in the assay on Staph. aureus Smith, in the assay with Str. pneumoniae 6301 and in the assay with Str. pyogenes 4 were 8 µg/mL, 0.0625 µg/mL and 0.125 µg/mL, respectively. The ED50 is less than 0.1 mg/kg in the assay on Escherichia coli 25922, 12 mg/kg in assay [2] and 0.78 mg/kg in assay [3].
